{
  "source": "patent US11340216B2",
  "about": "“Methods and compositions for the positive selection of protein destabilizers” (Dana-Farber Cancer Institute, Inc., priority 2016, dated 2022)",
  "key": {"[1]": {"tested_on": "DCK-IKZF1-IRES-GFP in 293T cells", "experiment": "Up assay with limited drug library of approximately 700 compounds", "format": "cell-based", "conditions": "~700 compound library, BVdU on Day 2, read Day 5, FIG. 25", "experimental": "For the up assay experiment, 293T cells stably infected to produce DCK-IKZF1-IRES-GFP were seeded in three 384 well plates on Day 0. Each well on each plate received a library drug from a ˜700 compound drug library, and BVdU on Day 2."}, "[2]": {"molecular_target": "T1, IKZF1-Firefly luciferase protein in 293T cells (UniProt P08659+Q13422+Q96SW2)", "T1 construct": "expressed in transfected cells; host or cells: 293T, stably infected", "T1 sequence (Q13422+P08659 fused)": "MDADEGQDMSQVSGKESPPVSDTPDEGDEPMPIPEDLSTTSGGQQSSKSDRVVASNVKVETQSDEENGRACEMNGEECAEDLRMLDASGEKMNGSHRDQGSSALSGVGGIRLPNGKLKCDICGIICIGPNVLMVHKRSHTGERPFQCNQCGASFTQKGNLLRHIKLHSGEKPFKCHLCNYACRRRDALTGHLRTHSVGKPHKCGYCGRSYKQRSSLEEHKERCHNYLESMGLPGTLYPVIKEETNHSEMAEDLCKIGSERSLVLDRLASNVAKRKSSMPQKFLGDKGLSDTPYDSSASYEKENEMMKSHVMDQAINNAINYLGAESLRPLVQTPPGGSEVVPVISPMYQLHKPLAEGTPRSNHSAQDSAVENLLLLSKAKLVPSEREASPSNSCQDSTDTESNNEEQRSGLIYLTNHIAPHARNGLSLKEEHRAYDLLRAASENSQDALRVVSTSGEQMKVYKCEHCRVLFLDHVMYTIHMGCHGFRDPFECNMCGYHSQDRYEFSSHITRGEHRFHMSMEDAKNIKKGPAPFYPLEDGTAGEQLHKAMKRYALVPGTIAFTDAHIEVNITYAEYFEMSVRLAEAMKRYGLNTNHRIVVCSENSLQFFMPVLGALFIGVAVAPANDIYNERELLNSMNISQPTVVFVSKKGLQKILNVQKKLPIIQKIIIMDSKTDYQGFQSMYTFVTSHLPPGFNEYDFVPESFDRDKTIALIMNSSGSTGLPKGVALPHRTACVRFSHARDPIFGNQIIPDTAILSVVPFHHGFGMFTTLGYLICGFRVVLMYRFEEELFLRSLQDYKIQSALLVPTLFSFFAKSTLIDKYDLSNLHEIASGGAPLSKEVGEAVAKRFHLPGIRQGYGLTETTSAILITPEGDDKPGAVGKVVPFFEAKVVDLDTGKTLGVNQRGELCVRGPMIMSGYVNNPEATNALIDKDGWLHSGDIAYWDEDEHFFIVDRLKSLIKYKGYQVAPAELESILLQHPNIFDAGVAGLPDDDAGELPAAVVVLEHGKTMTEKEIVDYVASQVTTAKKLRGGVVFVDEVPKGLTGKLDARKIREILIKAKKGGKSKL", "T1 sequence (Q96SW2 whole entry)": "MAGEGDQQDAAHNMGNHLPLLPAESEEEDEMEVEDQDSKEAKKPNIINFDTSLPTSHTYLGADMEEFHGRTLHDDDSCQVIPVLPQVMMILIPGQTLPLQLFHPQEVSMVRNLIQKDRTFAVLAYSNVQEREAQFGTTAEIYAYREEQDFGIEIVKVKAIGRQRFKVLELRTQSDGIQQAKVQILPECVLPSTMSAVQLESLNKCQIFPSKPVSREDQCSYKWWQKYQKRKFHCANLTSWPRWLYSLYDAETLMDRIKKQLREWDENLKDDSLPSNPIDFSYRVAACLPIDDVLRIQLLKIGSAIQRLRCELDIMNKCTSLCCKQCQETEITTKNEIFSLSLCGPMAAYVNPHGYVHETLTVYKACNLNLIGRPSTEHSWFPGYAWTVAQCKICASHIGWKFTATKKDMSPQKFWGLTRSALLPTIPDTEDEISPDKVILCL", "T1 sequence (Q16531 whole entry partner)": "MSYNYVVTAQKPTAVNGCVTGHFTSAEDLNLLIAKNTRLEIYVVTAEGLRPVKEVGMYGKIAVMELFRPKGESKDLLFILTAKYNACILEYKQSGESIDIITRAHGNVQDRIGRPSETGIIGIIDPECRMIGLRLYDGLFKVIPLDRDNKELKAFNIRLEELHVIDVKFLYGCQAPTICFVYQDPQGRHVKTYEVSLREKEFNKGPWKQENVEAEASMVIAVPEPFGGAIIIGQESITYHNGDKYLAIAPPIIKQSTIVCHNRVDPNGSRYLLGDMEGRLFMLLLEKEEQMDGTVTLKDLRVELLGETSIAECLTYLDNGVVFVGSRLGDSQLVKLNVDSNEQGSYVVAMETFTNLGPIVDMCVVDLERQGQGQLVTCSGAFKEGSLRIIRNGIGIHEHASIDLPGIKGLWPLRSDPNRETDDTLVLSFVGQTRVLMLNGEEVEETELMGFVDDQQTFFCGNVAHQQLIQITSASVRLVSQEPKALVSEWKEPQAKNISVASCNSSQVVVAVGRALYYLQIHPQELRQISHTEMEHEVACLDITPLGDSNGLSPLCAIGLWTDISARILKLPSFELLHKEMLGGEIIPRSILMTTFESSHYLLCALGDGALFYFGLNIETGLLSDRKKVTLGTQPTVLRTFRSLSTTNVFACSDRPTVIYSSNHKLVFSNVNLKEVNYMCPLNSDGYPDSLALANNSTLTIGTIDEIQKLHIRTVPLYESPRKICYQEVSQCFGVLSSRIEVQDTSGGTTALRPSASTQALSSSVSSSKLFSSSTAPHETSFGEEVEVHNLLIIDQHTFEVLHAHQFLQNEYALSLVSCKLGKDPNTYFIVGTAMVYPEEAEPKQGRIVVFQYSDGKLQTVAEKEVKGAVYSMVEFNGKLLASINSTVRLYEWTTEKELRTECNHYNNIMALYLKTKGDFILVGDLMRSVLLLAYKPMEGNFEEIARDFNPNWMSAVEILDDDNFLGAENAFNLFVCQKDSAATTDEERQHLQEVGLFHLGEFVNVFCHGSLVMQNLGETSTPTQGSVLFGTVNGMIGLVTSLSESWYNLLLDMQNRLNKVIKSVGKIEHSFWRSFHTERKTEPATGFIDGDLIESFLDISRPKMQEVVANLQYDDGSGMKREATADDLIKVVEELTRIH", "experiment": "Down assay, Firefly/Renilla luciferase ratio", "format": "cell-based", "conditions": "read Day 5, FIG. 26", "experimental": "A down assay experiment was conducted in parallel with the up assay experiment. For the down assay experiment, 293T cells stably infected to produce the IKZF1-Firefly luciferase protein as well as the Renilla luciferase protein from a single mRNA transcript were treated as described in the “Up” Assay. On Day 5, for each plate, Firefly and Renilla luciferase signals were quantified, and the Firefly/Renilla ratio calculated for each well and converted to a Z-statistic and plotted (FIG. 26). The hits noted in the “Up Assay” have been labeled in FIG. 25 and FIG. 26 to allow for comparison between the two assays."}, "[3]": {"tested_on": "DCK-IKZF1-IRES-GFP in 293T cells", "experiment": "Pilot drug screen, up assay, 384 well, GFP fluorescence converted to Z-statistic", "format": "cell-based", "conditions": "~25 μM library drug, BVdU Day 1, read Day 5, FIG. 24", "experimental": "Columns 1, 23, and 24 of the plate shown in FIG. 23 (right) were treated with DMSO, Pomalidomide, and Dipyridamole, respectively, while each well in Columns 2-22 was treated with an individual drug (concentration=˜25 μM) from a library of approximately 550 bioactive chemicals. On Day 1, Column 1 was treated with DMSO, and Columns 2-24 were treated with BVdU. On Day 5, GFP fluorescence in each well was quantified using an Acumen Laser Cytometer."}, "dCK-IKZF3 fusion protein [4]": {"tested_on": "dCK-IKZF3 fusion protein", "experiment": "BVdU sensitivity and pomalidomide rescue, cell count by Vi-Cell, cells expressing dCK-IKZF3 fusion", "format": "cell-based", "conditions": "2 μM pomalidomide, 100 μM BVdU, counted day 5, FIG. 7", "experimental": "(§1) To assess the validity of the proposed positive selection system, a set of experiments was devised according to the technique outlined in FIG. 6. On day −2, 1×10^6 cells were seeded into a 6 cm dish with 4 mL of DMEM culture media. On day −1, 30,000 cells were seeded per well of a 6 well plate in DMEM media, and on day 0, media were replaced with DMEM media supplemented with decreasing concentrations of BVdU, generated by serial dilution. From days 0-4, media were replaced daily, and on day 5, cells were counted by Vi-Cell. For pomalidomide rescue experiments, the cells were seeded as described above, but from day −2 onwards, were maintained in DMEM media supplemented with 2 μM pomalidomide (Selleck Chemicals)."}, "[5]": {"tested_on": "IKZF3 and IKZF3 fusion proteins", "conditions": "2 μM or 20 μM Pomalidomide, FIG. 5", "protocol": "HEK-293FT (Invitrogen) cells were maintained in DMEM medium supplemented with 10% FBS, 100 U/mL Penicillin and 100 μg/mL streptomycin. Stable cell lines were established by lentiviral infection followed by growth in media containing 10 μg/mL blasticidin, followed by fluorescence activated cell sorting to collect GFP-expressing cells.\nOn day 0, 250,000 cells were seeded into each of three wells of a 6-well plate. […] Cells were washed twice with ice-cold PBS and harvested in EBC Lysis Buffer supplemented with 1× protease inhibitor (Roche). Whole cell extracts were resolved by SDS-PAGE, transferred onto a nitrocellulose membrane, and probed with indicated primary antibodies."}, "[6]": {"molecular_target": "T2, deoxycytidine kinase (dCK) (Homo sapiens, UniProt P27707)", "T2 construct": "V5 (only if expressed from the GFP vector); expressed in transfected cells", "T2 sequence (P27707 whole entry, species assumed, the tested form may be a part)": "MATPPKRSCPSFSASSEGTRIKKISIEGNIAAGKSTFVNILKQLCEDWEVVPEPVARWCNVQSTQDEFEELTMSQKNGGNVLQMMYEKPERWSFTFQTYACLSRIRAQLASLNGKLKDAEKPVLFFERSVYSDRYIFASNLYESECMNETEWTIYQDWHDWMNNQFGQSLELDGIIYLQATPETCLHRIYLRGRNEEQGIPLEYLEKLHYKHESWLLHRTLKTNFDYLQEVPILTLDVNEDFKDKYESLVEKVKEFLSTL", "experiment": "BVdU sensitivity and pomalidomide rescue, cell count by Vi-Cell, cells expressing unfused dCK", "format": "cell-based", "conditions": "2 μM pomalidomide, BVdU dose-response, FIG. 8", "experimental": "as §1"}, "DCK-IKZF1-IRES-GFP": {"tested_on": "DCK-IKZF1-IRES-GFP", "experiment": "Same-well assay, 1:1 mixture of DCK-IRES-Tomato and DCK-IKZF1-IRES-GFP 293T stables, GFP/Tomato ratio", "format": "cell-based", "conditions": "BVdU exposure, FIG. 28", "experimental": "However, exposure of the cells to Pomalidomide and subsequent BVdU exposure specifically rescues the DCK-IKZF1-IRES-GFP population and increases the GFP/Tomato ratio.\nThis assay was deployed in a proof of concept experiment with a small library of ˜88 engineered IMiD derivatives and plated at 10 serial dilutions ranging from 10 μM to 300 pM."}, "dCK-IKZF3 fusion protein [7]": {"tested_on": "dCK-IKZF3 fusion protein", "experiment": "Competition assay, dCK-IKZF3 GFP cells mixed with dCK tdTomato cells, flow cytometry", "format": "cell-based", "conditions": "2 μM pomalidomide plus 100 μM BVdU, 14 days, FIG. 22", "excerpt": "Next, a competition assay was devised using dCK and CK-IKZF constructs (FIG. 21). In these experiments, cells expressing dCK-IKZF fusion protein and GFP were mixed with cells expressing dCK and tdTomato. In the presence of BVdU, cells expressing either construct would be capable of generating the cytotoxic product. However, upon the addition of an IMiD (pomalidomide), dCK-IKZF fusion protein would be destabilized, allowing outgrowth of GFP+ cells. dCK-IKZF3 cells labeled with GFP were mixed with dCK cells labeled with tdTomato at a ratio of 1:99 and on day −2, were plated into 6 well plates at 100,000 cells/well in triplicate. On Day −1, the “Mock” and “BVdU” wells were treated with DMSO, and the “pomalidomide” well was treated with 2 μM pomalidomide. On day 0, the “Mock” well was treated with DMSO, while the “BVdU” well was treated with 100 μM BVdU, and the “pomalidomide” well received 2 μM pomalidomide and 100 μM BvDU. Cells were split, re-seeded to maintain cell density, treated with the appropriate drugs and analyzed by flow cytometry every 3 days."}, "[8]": {"tested_on": "EV-GFP / dCK-Tomato cell mixture", "experiment": "Cell mixing (bystander effect) assay, EV-GFP cells with dCK-Tomato cells, flow cytometry", "format": "cell-based", "conditions": "100 μM BVdU, 100,000 cells/well, start 8% EV-GFP", "excerpt": "The scheme depicted in FIG. 14 generally describes the bystander effect assay in the context of dCK positive selection systems. Cells expressing dCK and tomato fluorescent protein (Td) are mixed with cells having empty vector (EV) and green fluorescent protein (GFP). When cultured with BVdU, cells expressing dCK are expected to convert the nucleotide analog into a product that elicits cytotoxicity, resulting in outgrowth of resistant cells (EV-GFP) as measured by relative GFP/Td fluorescence in the absence of significant bystander killing.\nThe effects of cell density in cell mixture experiments were examined. EV-GFP cells were mixed together with dCK-Tomato cells in a ratio of 1:9, and the resulting mixture of cells was plated in 6 well plates at 500,000 cells/well, 250,000 cells/well, and 100,000 cells/well, with two wells plated per cell density (FIG. 15). For each cell density, one well received 100 μM BVdU, and the other an equivalent amount of DMSO. Cells were split and re-seeded every 72 hours, to preserve cell density, and analyzed by flow cytometry to quantify the fraction of GFP and Tomato-labeled cells."}},
  "data": [
    {"smiles": "Cc1cn([C@H]2C[C@H](O)[C@@H](CO)O2)c(=O)[nH]c1=O", "note": "[Thymidine]", "values": [
      {"measurement": "Hit classification in up assay (GFP Z-statistic)", "setting": "[1]", "result": "assay positive"},
      {"measurement": "Hit classification in down assay (Firefly/Renilla ratio Z-statistic)", "setting": "[2]", "result": "does not score"}
    ]},
    {"smiles": "Nc1cccc2c1C(=O)N(C1CCC(=O)NC1=O)C2=O", "note": "(stereo not shown) [Pomalidomide, pomalidomide]", "values": [
      {"measurement": "Hit classification in pilot up-assay screen (GFP Z-statistic)", "setting": "[3]", "result": "true-positive hits"},
      {"measurement": "Rescue of cell viability from BVdU in cells expressing the fusion construct (CK-IKZF+Pom)", "setting": "dCK-IKZF3 fusion protein [4]", "result": "partial rescue and cell growth"},
      {"measurement": "Hit classification in up assay (GFP Z-statistic)", "setting": "[1]", "result": "true-positive hits"},
      {"measurement": "Cellular levels of IKZF3 and IKZF3 fusion proteins", "setting": "[5]", "result": "highly sensitive"},
      {"measurement": "Rescue from BVdU in cells expressing enzyme only (DCK+Pom)", "setting": "[6]", "result": "rescue did not occur"},
      {"measurement": "Classification by GFP and GFP/Tomato ratio in the same well", "setting": "DCK-IKZF1-IRES-GFP", "result": "true positive"},
      {"measurement": "Outgrowth of GFP+ (dCK-IKZF3) cells from 1% initial population", "setting": "dCK-IKZF3 fusion protein [7]", "result": "allowed for outgrowth of GFP+cells"}
    ]},
    {"smiles": "OCCN(CCO)c1nc(N2CCCCC2)c2nc(N(CCO)CCO)nc(N3CCCCC3)c2n1", "note": "[Dipyridamole, dipyridamole]", "values": [
      {"measurement": "Hit classification in pilot up-assay screen (GFP Z-statistic)", "setting": "[3]", "result": "non-specific hits"},
      {"measurement": "Classification by GFP and GFP/Tomato ratio in the same well", "setting": "DCK-IKZF1-IRES-GFP", "result": "assay positive"}
    ]},
    {"smiles": "O=c1[nH]c(=O)n([C@H]2C[C@H](O)[C@@H](CO)O2)cc1/C=C/Br", "note": "[BVdU, bromovinyl-deoxyuridine]", "values": [
      {"measurement": "EV-GFP cells as fraction of the cell mixture", "setting": "[8]; day 3", "result": 29, "unit": "%"},
      {"measurement": "EV-GFP cells as fraction of the cell mixture", "setting": "[8]; day 7", "result": 88, "unit": "%"}
    ]}
  ]
}
